According to US20240010984A1, “SERUM-FREE MEDIUM FOR DIFFERENTIATION OF A PROGENITOR CELL” (Mosa Meat B.V., priority 2020, published 2024):

How the values were obtained:
[1] = system: bovine muscle progenitor cells; test: Serum-free myogenic differentiation with or without Notch pathway inhibition, brightfield microscopy (Example 5, FIG. 3); type: cell-based
Protocol: Myogenic progenitor cells as disclosed in Example 2 were plated in Matrigel-coated (1:200 in PBS) plates at a seeding density of 40 k cells/cm^2 and cultured for 24 h in a serum-free proliferation medium as disclosed in Example 2. Myogenic differentiation was induced by adding an exemplary serum-free differentiation medium (Table 3) in the presence and absence of DAPT (gamma-Secretase inhibitor #ab120633, abcam) at 0 μM (absence of DAPT; control medium), 1 μM, 5 μM and 10 μM. Cells were imaged with brightfield microscopy and the differentiation phenotypes were compared.

[2] = system: Bovine muscle progenitor cells; test: Serum-free myogenic differentiation of bovine muscle progenitor cells into myocytes (Example 3, FIG. 1 and 2); type: cell-based, Bos taurus; settings: cells previously proliferated in serum-free proliferation medium, one inducer per medium (lactate 10 mM, LPA 5 uM, oxytocin 50 nM or glucagon 1 uM), different basal formulations
Protocol: The DMEM/F12 1:1 or 10:1 or 1:0 or alpha-MEM or M199 medium was supplemented with albumin (recombinant human albumin from Richcore) at 0.5 mg/ml, insulin (recombinant human insulin, 10-365 from Peprotech) at 19.4 ug/ml, transferrin (recombinant human transferrin, 10-366 from Peprotech) at 10.7 ug/ml, sodium selenite (S5261 from SigmaAldrich) at 0.014 ug/ml, Ethanolamine from Sigma Aldrich cat nr E9508 at 4 ug/ml, ascorbic acid (L-ascorbic acid 2-phosphate sesquimagnesium salt hydrate, A8960 from SigmaAldrich) at 115.22 ug/ml, EGF (recombinant human EGF, AF-100-15 from Peprotech) at 10 ng/ml and one of the following inducers: lactate (Sodium L-lactate, 71718 from SigmaAldrich) at 10 mM, LPA (Oleoyl-L-α-lysophosphatidic acid sodium salt, L7260 from SigmaAldrich) at 5 uM, oxytocin (06379 from SigmaAldrich) at 50 nM, or glucagon (G2044 from SigmaAldrich) at 1 uM.
Bovine muscle progenitor cells were isolated from a bovine muscle tissue (Bos taurus) and sorted based on their positive expression of CD29 as previously described (Ding et al., Sci. Rep., 17(8): 10808 (2018)). Muscle progenitor cells were propagated in a serum-free proliferation medium for at least 8 population doublings prior to differentiation. […]

What does the source list for `C[C@H](NC(=O)Cc1cc(F)cc(F)c1)C(=O)N[C@H](C(=O)OC(C)(C)C)c1ccccc1` [DAPT]?
myogenic differentiation of bovine muscle progenitor cells into myocytes compared to control medium without DAPT ([1]; DAPT 1 uM, 5 uM and 10 uM, serum-free differentiation medium of Table 3 (lactate 10 mM), FIG. 3): improved myogenic differentiation; number of cells that fuse into myotubes ([1]; DAPT added during myogenic differentiation): increases the number of cells that fuse into myotubes

How did the “induction of serum-free myogenic differentiation” value [2] turn out when `C[C@H](O)C(=O)[O-].[Na+]` [lactate, Sodium L-lactate] was run?
The value was “induction of serum-free myogenic differentiation could be achieved”.
